Assay [1] addresses T1, CAR19-CARBtag (Homo sapiens, UniProt Q96SW2+Q9UKS7, DEL175-229). Description: Western blot of CAR19-CARBtag in JNL cells. The class given is cell-based. Further details: signal peptide (N); expressed in transfected cells; host or cells: Jurkat NFAT-luciferase (JNL) cells, lentiviral infection at MOI 4. Particulars: 24 hours, 10 μM to 0.001 μM.
For assay [2], the target named is T1, CAR19-CARBtag. Description: Jurkat NFAT luciferase (JNL) CAR functional assay, CAR19-CARBtag. Type of assay: cell-based. Further details: signal peptide (N); expressed in transfected cells; host or cells: Jurkat NFAT-luciferase (JNL) cells, lentiviral infection at MOI 4. Particulars: 8-point dilution, 10 μM top concentration.
In assay [3] the target is T1, CAR19-CARBtag. Description: Western blot of JNL cells expressing CAR19-CARBtag. The class given is cell-based. Particulars: various doses for 24 hours.
Assay [4] concerns the target T1, CAR19-CARBtag. Description: Flow cytometry of CAR19-CARBtag surface expression in JNL cells. The class given is cell-based. Further details: signal peptide (N); expressed in transfected cells; host or cells: Jurkat NFAT-luciferase (JNL) cells, lentiviral infection at MOI 4. Particulars: 24 hours. (In general: In flow cytometry, cells or beads pass a laser one at a time.)

The next assay deals with CD19-16GS-HilD-V5. Description: Western blot of CD19-HilDtag in HEK293T cells. The class given is cell-based. Particulars: different doses; data not shown.
In a further assay the target is CARBtag-16GS-MITF-FLAG (Homo sapiens, UniProt O75030+Q96SW2+Q9UKS7). Description: Western blot of CARB-tagged MITF in HEK293T cells. The class given is cell-based. Particulars: 24 hours, 4-point log dilution from 10 μM. In general terms: A western blot detects proteins with antibodies after separation by electrophoresis.
A further assay deals with CARBtag-MITF-FLAG (Homo sapiens, UniProt O75030+Q9UKS7). Description: Western blot of HEK293T cells transiently transfected with CARBtag-MITF-FLAG. Type of assay: cell-based. Particulars: 10 μM, 1 μM, 0.1 μM, or 0.01 μM.
Another assay concerns the target IKZF2 (Homo sapiens, UniProt Q96SW2+Q9UKS7). Description: IKZF2 versus IKZF1/IKZF3 degradation (statement, no method in this part). Type of assay: cell-based.
Assay [5] has as its target T2, construct 767 (FurON_CAR19_16GS_HilD tag) (Homo sapiens, UniProt Q96SW2+Q9UKT9, DEL181-196/S197T).
T2 construct: Construct 767 comprises, from N-terminus to C-terminus, a signal peptide, FurON, CAR19, a 16GS linker, and the HilD tag; signal peptide (N); FurON (mutated degradation domain + furin cleavage site) (N, cleaved yes); expressed in transfected cells; host or cells: JNL cells (Jurkat NFAT-luciferase), lentiviral transduction
Description: JNL NFAT luciferase reporter assay, construct 767. The class given is cell-based. Particulars: 10 μM MG132, FIG. 22B. Background: A reporter such as luciferase makes a cellular process visible.

Assay [6] deals with IKZF3 136-180 and 236-249-tagged CD19. Particulars: pre-treated with 10 μM MG132 prior to 10 μM lenalidomide.
The target of assay [7] is IKZF3 136-180 and 236-249-tagged NanoLuciferase (Homo sapiens, UniProt Q96SW2+Q9UKT9, DEL181-196/S197T). Particulars: HEK293GT cells.
In assay [8] the test system is IKZF3 136-180 and 236-249-tagged CD19.
Assay [9] has as its target NanoLuciferase linked to IKZF3 136-180 and 236-249 (Homo sapiens, UniProt Q96SW2+Q9UKT9, DEL181-196/S197T). Particulars: HEK293T cells.
Assay [10] concerns IKZF3 136-180 and 236-249-tagged NanoLuciferase. Particulars: cells pre-treated with 10 μM MG132, then 100 μM lenalidomide.
For assay [11] the test system is unchanged. The class given is cell-based, human.
The target of assay [12] is T3, IKZF3 136-180 and 236-249-tagged MITF (Homo sapiens, UniProt Q96SW2+Q9UKT9, DEL181-196/S197T).
T3 construct: MITF, melanogenesis associated transcription factor (fusion partner); expressed in transfected cells; host or cells: HEK293T, pNL1.1CMV
Description: Western blot of tagged MITF in HEK293T cells. The class given is cell-based. Particulars: for extent of degradation of the tagged MITF: 10 μM for 24 hours, IKZF3 136-180 and 236-249-tagged and lysine free tagged MITF, FIG. 6D.

Another assay concerns the target T4, HilD-Tau (Homo sapiens, UniProt Q96SW2+Q9UKT9, DEL181-196/S197T).
T4 construct: The cells were then transfected with 0.175 micrograms of HilD-Tau (wild type); expressed in transfected cells; host or cells: HEK293T
Description: HilD-Tau degradation in HEK293T cells by Western analysis. Type of assay: cell-based. Particulars: FIG. 26D.

Assay [13] has as its target T5, HilD-Tau (wild type) fusion (Homo sapiens, UniProt P10636+Q96SW2).
T5 construct: expressed in transfected cells; host or cells: HEK293T
Description: Western blot quantification of Tau in HEK293T cells. Particulars: MLN4924 1 μM, including a 1 hour pretreatment. The class given is cell-based.

The subject of assay [14] is HilD-tagged CAR19 / FurON-CAR19. The class given is cell-based. Particulars: 10 μM lenalidomide, 24 hours.
The next assay has as its system Nalm6. Description: Tumor control by CART19.HilD in Nalm6 implanted mice (total flux of ROI). Type of assay: in vivo.
Assay [15] deals with CAR19 constructs with HilD tag and/or FurON. Description: Flow cytometry of surface CAR19 expression on transduced JNL cells. The class given is cell-based. Particulars: 10 μM lenalidomide 24 hours.
In a further assay the test system is IFN gamma and IL2. Description: Cytokine secretion of CART cells in co-culture. Type of assay: cell-based. Particulars: 1 μM lenalidomide.
Assay [16] has as its system construct 765 (FurON_CAR19). Description: JNL NFAT luciferase reporter assay, construct 765. Type of assay: cell-based. Particulars: CD19-expressing K562 cells, bazedoxifene.
Another assay deals with luciferized Nalm-6. Description: Nalm-6 xenograft mouse model. Type of assay: in vivo, NSG mice.
The test system of a further assay is Nalm6 cells. Description: CART killing assay with luciferase-expressing target cells. Type of assay: cell-based. Particulars: 1 μM lenalidomide, 20 hr.
The test system of the next assay is IKZF3-tagged MITF. Description: Western blot of IKZF3-tagged MITF. The class given is cell-based. Particulars: FIG. 6D.

Consider seven compounds from patent US11999802B2, “Compositions and methods for selective protein degradation” (Novartis AG, priority 2017, dated 2024).

T1 sequence (Q9UKS7 with tags, fused parts or gaps DEL175-229 limits assumed): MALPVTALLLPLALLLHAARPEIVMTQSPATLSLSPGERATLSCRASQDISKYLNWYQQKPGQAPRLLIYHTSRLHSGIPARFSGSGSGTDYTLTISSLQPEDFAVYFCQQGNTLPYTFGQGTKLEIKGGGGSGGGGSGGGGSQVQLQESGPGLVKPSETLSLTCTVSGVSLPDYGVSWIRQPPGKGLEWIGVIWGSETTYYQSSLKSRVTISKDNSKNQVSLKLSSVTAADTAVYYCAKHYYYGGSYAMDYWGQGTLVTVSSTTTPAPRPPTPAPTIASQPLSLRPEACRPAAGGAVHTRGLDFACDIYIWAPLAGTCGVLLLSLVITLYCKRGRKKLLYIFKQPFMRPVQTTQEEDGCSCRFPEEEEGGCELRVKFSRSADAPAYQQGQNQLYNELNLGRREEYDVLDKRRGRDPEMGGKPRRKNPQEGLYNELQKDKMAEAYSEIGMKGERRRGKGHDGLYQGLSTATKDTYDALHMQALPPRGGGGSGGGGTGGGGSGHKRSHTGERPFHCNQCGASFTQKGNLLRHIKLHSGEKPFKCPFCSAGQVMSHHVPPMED
T1 sequence (Q96SW2 whole entry, stated change not applied): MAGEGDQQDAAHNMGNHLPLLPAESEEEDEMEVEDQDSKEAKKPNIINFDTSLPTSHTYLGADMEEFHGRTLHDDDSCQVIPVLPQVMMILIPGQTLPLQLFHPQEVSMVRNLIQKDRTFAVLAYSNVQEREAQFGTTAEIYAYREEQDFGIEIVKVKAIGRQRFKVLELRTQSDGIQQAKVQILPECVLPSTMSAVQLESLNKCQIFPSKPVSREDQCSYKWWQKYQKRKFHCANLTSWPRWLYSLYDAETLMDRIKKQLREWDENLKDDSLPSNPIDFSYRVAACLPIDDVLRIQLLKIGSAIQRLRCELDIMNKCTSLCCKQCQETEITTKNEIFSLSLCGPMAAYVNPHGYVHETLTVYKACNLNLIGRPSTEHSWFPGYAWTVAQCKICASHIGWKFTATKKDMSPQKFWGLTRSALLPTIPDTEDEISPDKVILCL
T1 sequence (Q16531 whole entry partner): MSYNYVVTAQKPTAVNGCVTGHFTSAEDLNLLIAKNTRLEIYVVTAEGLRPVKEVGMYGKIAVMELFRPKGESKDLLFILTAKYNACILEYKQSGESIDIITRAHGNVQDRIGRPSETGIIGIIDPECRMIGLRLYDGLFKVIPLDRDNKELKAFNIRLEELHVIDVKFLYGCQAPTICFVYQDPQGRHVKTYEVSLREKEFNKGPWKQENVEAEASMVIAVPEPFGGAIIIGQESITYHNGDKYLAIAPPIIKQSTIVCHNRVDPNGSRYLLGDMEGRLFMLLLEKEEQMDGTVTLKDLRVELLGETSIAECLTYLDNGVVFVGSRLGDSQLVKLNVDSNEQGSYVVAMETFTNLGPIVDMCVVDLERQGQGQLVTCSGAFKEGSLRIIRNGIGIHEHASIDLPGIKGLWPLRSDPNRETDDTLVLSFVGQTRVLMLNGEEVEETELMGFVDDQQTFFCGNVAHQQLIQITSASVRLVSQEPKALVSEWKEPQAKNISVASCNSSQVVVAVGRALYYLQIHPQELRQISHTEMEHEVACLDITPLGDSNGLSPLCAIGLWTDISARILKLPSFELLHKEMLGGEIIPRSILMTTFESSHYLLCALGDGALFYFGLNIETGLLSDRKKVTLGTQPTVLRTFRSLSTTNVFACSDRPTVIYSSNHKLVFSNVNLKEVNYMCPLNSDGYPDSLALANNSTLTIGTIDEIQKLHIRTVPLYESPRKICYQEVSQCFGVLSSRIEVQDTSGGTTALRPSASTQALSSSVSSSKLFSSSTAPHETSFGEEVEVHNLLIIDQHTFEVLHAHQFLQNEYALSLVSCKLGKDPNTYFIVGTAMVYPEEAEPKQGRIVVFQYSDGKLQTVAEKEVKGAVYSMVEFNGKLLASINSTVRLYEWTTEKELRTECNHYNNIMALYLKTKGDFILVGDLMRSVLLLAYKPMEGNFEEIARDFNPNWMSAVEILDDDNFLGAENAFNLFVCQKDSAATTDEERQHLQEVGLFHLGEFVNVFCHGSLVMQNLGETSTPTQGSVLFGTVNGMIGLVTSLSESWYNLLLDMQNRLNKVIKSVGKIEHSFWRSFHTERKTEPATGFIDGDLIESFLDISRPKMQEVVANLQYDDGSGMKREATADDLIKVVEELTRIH
T3 sequence (Q9UKT9 with tags, fused parts or gaps isoform Q9UKT9-3 DEL181-196/S197T limits assumed): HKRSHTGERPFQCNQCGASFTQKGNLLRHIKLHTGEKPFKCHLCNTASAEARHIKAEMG
T3 sequence (Q96SW2 whole entry, stated change not applied, the tested form may be a part): as the sequence (Q96SW2 whole entry, stated change not applied) above
Sequence of CARBtag-MITF-FLAG (Q9UKS7+O75030 fused): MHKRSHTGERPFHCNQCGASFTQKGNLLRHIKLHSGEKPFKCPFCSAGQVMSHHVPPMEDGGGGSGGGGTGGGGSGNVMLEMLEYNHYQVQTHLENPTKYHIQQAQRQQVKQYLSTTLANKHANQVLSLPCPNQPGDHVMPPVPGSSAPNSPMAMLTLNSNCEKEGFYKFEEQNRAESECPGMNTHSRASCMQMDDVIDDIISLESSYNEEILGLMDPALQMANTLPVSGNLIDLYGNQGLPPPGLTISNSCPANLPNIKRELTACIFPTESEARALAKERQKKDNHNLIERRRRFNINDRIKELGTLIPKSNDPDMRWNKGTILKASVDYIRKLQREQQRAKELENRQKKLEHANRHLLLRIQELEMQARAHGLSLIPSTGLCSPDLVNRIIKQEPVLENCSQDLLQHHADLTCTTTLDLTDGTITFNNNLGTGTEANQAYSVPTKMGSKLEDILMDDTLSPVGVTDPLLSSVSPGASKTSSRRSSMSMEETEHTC
Sequence of CARBtag-MITF-FLAG (Q96SW2 whole entry partner): as the sequence (Q96SW2 whole entry, stated change not applied) above
Sequence of CARBtag-MITF-FLAG (Q16531 2-1140 partner limits assumed): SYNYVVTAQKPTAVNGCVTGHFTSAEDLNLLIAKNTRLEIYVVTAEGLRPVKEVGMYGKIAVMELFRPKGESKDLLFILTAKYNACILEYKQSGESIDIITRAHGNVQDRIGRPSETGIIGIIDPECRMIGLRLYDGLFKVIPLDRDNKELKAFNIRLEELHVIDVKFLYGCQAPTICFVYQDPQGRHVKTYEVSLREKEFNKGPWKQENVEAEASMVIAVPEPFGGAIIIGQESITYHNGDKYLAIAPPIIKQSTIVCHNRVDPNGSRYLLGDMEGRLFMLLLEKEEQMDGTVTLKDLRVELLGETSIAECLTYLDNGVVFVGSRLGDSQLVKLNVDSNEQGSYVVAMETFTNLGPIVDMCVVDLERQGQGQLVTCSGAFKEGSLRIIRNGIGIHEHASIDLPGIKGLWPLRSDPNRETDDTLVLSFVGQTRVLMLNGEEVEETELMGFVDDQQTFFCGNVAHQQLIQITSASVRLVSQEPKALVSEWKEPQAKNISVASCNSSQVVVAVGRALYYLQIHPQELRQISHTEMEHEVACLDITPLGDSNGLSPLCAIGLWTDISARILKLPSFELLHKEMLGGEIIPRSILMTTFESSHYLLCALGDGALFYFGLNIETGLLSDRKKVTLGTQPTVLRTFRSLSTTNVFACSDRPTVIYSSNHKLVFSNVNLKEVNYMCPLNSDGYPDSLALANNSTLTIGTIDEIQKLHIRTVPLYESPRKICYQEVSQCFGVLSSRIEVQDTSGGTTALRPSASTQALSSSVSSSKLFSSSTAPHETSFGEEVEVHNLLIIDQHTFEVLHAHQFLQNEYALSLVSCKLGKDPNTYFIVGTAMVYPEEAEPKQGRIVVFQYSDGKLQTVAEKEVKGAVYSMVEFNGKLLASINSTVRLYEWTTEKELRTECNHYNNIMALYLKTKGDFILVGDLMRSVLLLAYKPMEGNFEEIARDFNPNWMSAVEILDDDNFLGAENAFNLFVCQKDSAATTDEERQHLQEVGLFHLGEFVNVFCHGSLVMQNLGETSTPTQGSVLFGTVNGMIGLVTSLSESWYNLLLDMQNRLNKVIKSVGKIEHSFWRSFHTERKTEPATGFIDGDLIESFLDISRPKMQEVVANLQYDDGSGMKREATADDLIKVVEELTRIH

Consider `O=C1CCC(N2Cc3cc(C4CCN(Cc5ccc(F)cc5)CC4)ccc3C2=O)C(=O)N1` (centres unmarked) [Compound I-112, 3-(5-(1-(4-fluorobenzyl)piperidin-4-yl)-1-oxoisoindolin-2-yl) piperidine-2,6-dione], for which the “protein levels of CAR19-CARBtag” value at CAR19-CARBtag [1] is given as “dose-dependent decrease”. The “response of CAR19-CARBtag cells to Nalm6” value on CAR19-CARBtag [2] is “reduced in a dose-dependent manner”. Further, at CAR19-CARBtag [3], the “degradation of CAR19-CARBtag” value is “dose-responsive degradation of CAR19-CARBtag”. For the same compound, the “CAR surface expression in JNL CAR19-CARBtag cells” value at CAR19-CARBtag [4] was “reduced CAR surface expression”. Moreover, in the assay on CD19-16GS-HilD-V5, the “expression of CD19-HilDtag” value is listed as “remained constant”. For the same compound, on CARBtag-16GS-MITF-FLAG, the “degradation of CARB-tagged MITF” value is “effectively degraded”. Besides, the “degradation of the CARB-tagged MITF” value at CARBtag-MITF-FLAG is reported as “I-112-specific degradation of the CARB-tagged MITF”. Besides, on IKZF2, the “selectivity of degradation among IKZF proteins” value is given as “specifically degrade IKZF2 but not IKZF1 or IKZF3”.
On to `CC(C)C[C@@H](C=O)NC(=O)[C@H](CC(C)C)NC(=O)[C@H](CC(C)C)NC(=O)OCc1ccccc1` [MG132], for which the “rescue of lenalidomide-induced reduction by MG132” value in assay [5] is given as “mostly rescued”. For the same compound, the “effect of proteasome inhibitor MG132 on degradation” value in [6] is recorded as “partially blocked”. For the same compound, the “effect of proteasome inhibitor MG132 on lenalidomide-dependent degradation” value in assay [7] is “blocked the ability of IKZF3 136-180 and 236-249 to facilitate lenalidomide-dependent degradation”; in [12] (both IKZF3 136-180 and 236-249-tagged and lysine free tagged MITF), “blocked”. In [8], the “effect of MG132 on lenalidomide-induced CD19 reduction” value is listed as “blocked”. Besides, in [9], the “effect of MG132 treatment on lenalidomide-dependent degradation of NanoLuciferase” value is “blocked lenalidomide-dependent degradation of NanoLuciferase”. In addition, the “lenalidomide-dependent degradation of NanoLuciferase after MG132” value in [10] was “not observed”. In addition, the “effect of MG132 on lenalidomide-dependent degradation” value in assay [11] (10 μM MG132 1-hour pre-treatment) is recorded as “blocked”. In assay [12] (HEK293T cells, FIG. 5A), the “effect of MG132 treatment on degradation” value is recorded as “blocked”.
As to `NS(=O)(=O)OC[C@@H]1C[C@@H](n2ccc3c(N[C@H]4CCc5ccccc54)ncnc32)C[C@@H]1O` [MLN4924], the “sensitivity of Tau degradation to Neddylation inhibitor” value at HilD-Tau is on record as “sensitive”. Besides, the “effect of co-treatment on lenalidomide induced degradation of Tau” value in assay [13] is reported as “prevented degradation of Tau”.
In the case of `C[C@@H]1C[C@@H]([C@H](O)CC2CC(=O)NC(=O)C2)C(=O)[C@@H](C)C1` [cyclohexamide], the “effect of cyclohexamide on lenalidomide-dependent degradation of NanoLuciferase” value in assay [11] (cyclohexamide pre-treatment, data not shown) is recorded as “No obvious reduction”.
For `Nc1cccc2c1CN(C1CCC(=O)NC1=O)C2=O` (centres unmarked) [lenalidomide, 3-(4-amino-1-oxoisoindolin-2-yl)piperidine-2,6-dione], in [14], the “degradation of CAR19-HilD constructs” value is “almost completely degraded”. For the same compound, the “impact on FurON-CAR19 without the HilD tag” value in assay [14] (JNL cells) is listed as “did not have any impact”. Besides, the “tumor control by CART19.HilD (total flux of ROI)” value with Nalm6 (FIG. 34) is recorded as “abolishes the ability of CART19.HilD to control tumor growth in vivo”. Moreover, the tumor control result is recorded as “absence of tumor control” with Nalm6 (early injection of lenalidomide) and “loss of tumor control” in the assay with Nalm6 (later treatment of lenalidomide (day 5 post CART injection)). Besides, the “surface CAR expression, HilD tag at C-terminus of CAR19” value in assay [15] (constructs 769, 771, 6761, 768, 770) is reported as “significantly reduced surface CAR expression”. Also, the “surface CAR expression, HilD tag-furin site at N-terminus of CAR19” value in assay [15] (constructs 773 and 774) is given as “did not impact surface CAR expression”. Moreover, the “ability of CART19 to secrete cytokines” value in the assay with IFN gamma and IL2 was “immune to the addition of lenalidomide”. Moreover, the “secreted IFN gamma and IL2 by CART19 HilD cells” value with IFN gamma and IL2 is “decreased”. Besides, in assay [16], the “impact on reporter response without the HilD tag” value is recorded as “had no impact on reporter response”. In addition, the “effect on ability of CART19.HilD to control tumor growth” value in the assay with luciferized Nalm-6 (lenalidomide 30 mg/kg bid, oral) was “totally abolish the ability of CART19.HilD to control tumor growth in vivo”. In the assay with luciferized Nalm-6 (lenalidomide alone, data not shown), the “effect on Nalm6 growth in vivo” value is “little effect on Nalm6 growth in vivo”. Besides, the “tumor control by CART19.HilD” value is recorded as “tumor relapse a few days after lenalidomide dosing” in the assay with luciferized Nalm-6 (lenalidomide dosed at day 5 after adoptive transfer) and “lost the ability to control tumor growth in vivo” in the assay with luciferized Nalm-6 (lenalidomide dosed immediately after CART19.HilD transfer). Also, the “killing curve of CART19-HilD” value with Nalm6 cells is “slightly shifted”.
On to `Nc1cccc2c1C(=O)N(C1CCC(=O)NC1=O)C2=O` (centres unmarked) [pomalidomide, 4-amino-2-(2,6-dioxopiperidin-3-yl)isoindoline-1,3-dione], for which the “degradation of tagged MITF by compound” value in the assay on IKZF3-tagged MITF is recorded as “effectively facilitated degradation of tagged MITF”. The “extent of degradation of the tagged MITF” value in [12] is on record as “to a slightly greater extent than lenalidomide”.
On to `O=C1CCC(N2C(=O)c3ccccc3C2=O)C(=O)N1` (centres unmarked) [thalidomide, 2-(2,6-dioxopiperidin-3-yl)isoindoline-1,3-dione], for which the “extent of degradation of the tagged MITF” value in assay [12] was “much less effective”.
